In paper PMC7178854 (Journal of Enzyme Inhibition and Medicinal Chemistry, 2020):

Key:
ASFV protease (pS273R) [1] = target: T1, ASFV protease (pS273R) (African swine fever virus BA71V, UniProt Q00946); format: biochemical
T1 construct: gene Ba71V-111

ASFV protease (pS273R) [2] = target: T1, ASFV protease (pS273R); test: biochemical

T1 sequence (Q00946 whole entry, looked up): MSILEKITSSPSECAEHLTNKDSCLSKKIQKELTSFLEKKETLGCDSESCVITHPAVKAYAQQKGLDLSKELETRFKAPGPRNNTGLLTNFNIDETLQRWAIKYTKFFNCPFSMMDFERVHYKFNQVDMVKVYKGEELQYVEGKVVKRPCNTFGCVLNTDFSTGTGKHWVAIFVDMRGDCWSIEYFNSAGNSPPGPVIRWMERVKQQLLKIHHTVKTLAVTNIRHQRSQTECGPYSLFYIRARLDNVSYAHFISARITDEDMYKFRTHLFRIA

SMILES	RFU at 40 μM (ASFV protease (pS273R) [1])	IC50 (ASFV protease (pS273R) [2]) [µM]
O=c1c(O)c(-c2ccc(O)cc2)oc2c(O)c(O)cc(O)c12 [herbacetin]	Its activity, however, is similar to those of herbacetin, kaempferol and morin	
O=c1c(O)c(-c2ccc(O)cc2)oc2cc(O)cc(O)c12 [kaempferol]	Its activity, however, is similar to those of herbacetin, kaempferol and morin	
C[C@@H]1O[C@@H](Oc2c(-c3cc(O)c(O)c(O)c3)oc3cc(O)cc(O)c3c2=O)[C@H](O)[C@H](O)[C@H]1O [myricitrin]		2.7
O=c1c(O)c(-c2ccc(O)cc2O)oc2cc(O)cc(O)c12 [morin]	Its activity, however, is similar to those of herbacetin, kaempferol and morin	
O=c1c(O)c(-c2cc(O)c(O)c(O)c2)oc2cc(O)cc(O)c12 [myricetin, 3,3′,4′,5,5′,7-Hexahydroxyflavone]		8.4
